{"source": "PubChem BioAssay (NCI)", "note": "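Protocol summary: plate cells (96-well), add compound at 5 concentrations, incubate 48 h, interpolate endpoints linearly. TGI: total growth inhibition.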", "data": [{"system": "HL-60(TB) leukemia", "experiment": "growth of human tumour cells (NCI), 48 h", "units": {"TGI": "µM"}, "values": [{"smiles": "O=C(Nc1ccc([N+](=O)[O-])cc1)C1C(=O)C(=O)N(c2ccc([N+](=O)[O-])cc2)C1=O", "note": "(stereo not given)", "TGI": "> 100"}, {"smiles": "CCOC(=O)C1N(S(=O)(=O)c2ccc(C)cc2)CCC12C(c1ccc(OC)cc1)NC1CCCCC12", "note": "(stereo not given)", "TGI": "> 100"}, {"smiles": "O=C(/C=C/c1ccccc1)/C=C/c1ccccc1", "TGI": 78.8}]}, {"system": "SF-539 CNS", "experiment": "growth of human tumour cells (NCI), 48 h", "units": {"TGI": "µM"}, "values": [{"smiles": "Cc1cccc(NC(=O)/C=C/c2ccc(N(CCC#N)CCC#N)cc2C)c1", "TGI": "> 100"}, {"smiles": "O=C(Nc1ccc([N+](=O)[O-])cc1)C1C(=O)C(=O)N(c2ccc([N+](=O)[O-])cc2)C1=O", "note": "(stereo not given)", "TGI": "> 100"}, {"smiles": "CCOC(=O)C1N(S(=O)(=O)c2ccc(C)cc2)CCC12C(c1ccc(OC)cc1)NC1CCCCC12", "note": "(stereo not given)", "TGI": "> 100"}, {"smiles": "O=C(/C=C/c1ccccc1)/C=C/c1ccccc1", "TGI": 45}]}, {"system": "KM20L2 colon", "experiment": "growth of human tumour cells (NCI), 48 h", "units": {"TGI": "µM"}, "values": [{"smiles": "Cc1cccc(NC(=O)/C=C/c2ccc(N(CCC#N)CCC#N)cc2C)c1", "TGI": "> 100"}, {"smiles": "O=C(Nc1ccc([N+](=O)[O-])cc1)C1C(=O)C(=O)N(c2ccc([N+](=O)[O-])cc2)C1=O", "note": "(stereo not given)", "TGI": "> 100"}, {"smiles": "CCOC(=O)C1N(S(=O)(=O)c2ccc(C)cc2)CCC12C(c1ccc(OC)cc1)NC1CCCCC12", "note": "(stereo not given)", "TGI": "> 100"}, {"smiles": "O=C(/C=C/c1ccccc1)/C=C/c1ccccc1", "TGI": 52.5}]}, {"system": "A549 NSCLC", "experiment": "growth of human tumour cells (NCI), 48 h", "units": {"TGI": "µM"}, "values": [{"smiles": "Cc1cccc(NC(=O)/C=C/c2ccc(N(CCC#N)CCC#N)cc2C)c1", "TGI": "> 100"}, {"smiles": "O=C(Nc1ccc([N+](=O)[O-])cc1)C1C(=O)C(=O)N(c2ccc([N+](=O)[O-])cc2)C1=O", "note": "(stereo not given)", "TGI": "> 100"}, {"smiles": "CCOC(=O)C1N(S(=O)(=O)c2ccc(C)cc2)CCC12C(c1ccc(OC)cc1)NC1CCCCC12", "note": "(stereo not given)", "TGI": "> 100"}, {"smiles": "O=C(/C=C/c1ccccc1)/C=C/c1ccccc1", "TGI": "> 100"}]}, {"system": "XF 498 CNS", "experiment": "growth of human tumour cells (NCI), 48 h", "units": {"TGI": "µM"}, "values": [{"smiles": "Cc1cccc(NC(=O)/C=C/c2ccc(N(CCC#N)CCC#N)cc2C)c1", "TGI": "> 100"}]}, {"system": "ACHN renal", "experiment": "growth of human tumour cells (NCI), 48 h", "units": {"TGI": "µM"}, "values": [{"smiles": "Cc1cccc(NC(=O)/C=C/c2ccc(N(CCC#N)CCC#N)cc2C)c1", "TGI": "> 100"}, {"smiles": "O=C(Nc1ccc([N+](=O)[O-])cc1)C1C(=O)C(=O)N(c2ccc([N+](=O)[O-])cc2)C1=O", "note": "(stereo not given)", "TGI": "> 100"}, {"smiles": "CCOC(=O)C1N(S(=O)(=O)c2ccc(C)cc2)CCC12C(c1ccc(OC)cc1)NC1CCCCC12", "note": "(stereo not given)", "TGI": "> 100"}, {"smiles": "O=C(/C=C/c1ccccc1)/C=C/c1ccccc1", "TGI": 38.2}]}, {"system": "NCI-H23 lung", "experiment": "growth of human tumour cells (NCI), 48 h", "units": {"TGI": "µM"}, "values": [{"smiles": "Cc1cccc(NC(=O)/C=C/c2ccc(N(CCC#N)CCC#N)cc2C)c1", "TGI": "> 100"}, {"smiles": "O=C(Nc1ccc([N+](=O)[O-])cc1)C1C(=O)C(=O)N(c2ccc([N+](=O)[O-])cc2)C1=O", "note": "(stereo not given)", "TGI": "> 100"}, {"smiles": "CCOC(=O)C1N(S(=O)(=O)c2ccc(C)cc2)CCC12C(c1ccc(OC)cc1)NC1CCCCC12", "note": "(stereo not given)", "TGI": "> 100"}, {"smiles": "O=C(/C=C/c1ccccc1)/C=C/c1ccccc1", "TGI": 82.4}]}, {"system": "SW-620 colon", "experiment": "growth of human tumour cells (NCI), 48 h", "units": {"TGI": "µM"}, "values": [{"smiles": "Cc1cccc(NC(=O)/C=C/c2ccc(N(CCC#N)CCC#N)cc2C)c1", "TGI": "> 100"}, {"smiles": "O=C(Nc1ccc([N+](=O)[O-])cc1)C1C(=O)C(=O)N(c2ccc([N+](=O)[O-])cc2)C1=O", "note": "(stereo not given)", "TGI": 33.9}, {"smiles": "CCOC(=O)C1N(S(=O)(=O)c2ccc(C)cc2)CCC12C(c1ccc(OC)cc1)NC1CCCCC12", "note": "(stereo not given)", "TGI": "> 100"}, {"smiles": "O=C(/C=C/c1ccccc1)/C=C/c1ccccc1", "TGI": 40.8}]}, {"system": "TK-10 renal", "experiment": "growth of human tumour cells (NCI), 48 h", "units": {"TGI": "µM"}, "values": [{"smiles": "Cc1cccc(NC(=O)/C=C/c2ccc(N(CCC#N)CCC#N)cc2C)c1", "TGI": "> 100"}, {"smiles": "O=C(Nc1ccc([N+](=O)[O-])cc1)C1C(=O)C(=O)N(c2ccc([N+](=O)[O-])cc2)C1=O", "note": "(stereo not given)", "TGI": "> 100"}, {"smiles": "CCOC(=O)C1N(S(=O)(=O)c2ccc(C)cc2)CCC12C(c1ccc(OC)cc1)NC1CCCCC12", "note": "(stereo not given)", "TGI": "> 100"}, {"smiles": "O=C(/C=C/c1ccccc1)/C=C/c1ccccc1", "TGI": "> 100"}]}, {"system": "EKVX NSCLC", "experiment": "growth of human tumour cells (NCI), 48 h", "units": {"TGI": "µM"}, "values": [{"smiles": "Cc1cccc(NC(=O)/C=C/c2ccc(N(CCC#N)CCC#N)cc2C)c1", "TGI": "> 100"}, {"smiles": "O=C(Nc1ccc([N+](=O)[O-])cc1)C1C(=O)C(=O)N(c2ccc([N+](=O)[O-])cc2)C1=O", "note": "(stereo not given)", "TGI": "> 100"}, {"smiles": "CCOC(=O)C1N(S(=O)(=O)c2ccc(C)cc2)CCC12C(c1ccc(OC)cc1)NC1CCCCC12", "note": "(stereo not given)", "TGI": "> 100"}]}, {"system": "NCI-H460 lung", "experiment": "growth of human tumour cells (NCI), 48 h", "units": {"TGI": "µM"}, "values": [{"smiles": "Cc1cccc(NC(=O)/C=C/c2ccc(N(CCC#N)CCC#N)cc2C)c1", "TGI": "> 100"}, {"smiles": "O=C(Nc1ccc([N+](=O)[O-])cc1)C1C(=O)C(=O)N(c2ccc([N+](=O)[O-])cc2)C1=O", "note": "(stereo not given)", "TGI": "> 100"}, {"smiles": "CCOC(=O)C1N(S(=O)(=O)c2ccc(C)cc2)CCC12C(c1ccc(OC)cc1)NC1CCCCC12", "note": "(stereo not given)", "TGI": "> 100"}, {"smiles": "O=C(/C=C/c1ccccc1)/C=C/c1ccccc1", "TGI": 65.5}]}, {"system": "DLD-1 colon", "experiment": "growth of human tumour cells (NCI), 48 h", "units": {"TGI": "µM"}, "values": [{"smiles": "Cc1cccc(NC(=O)/C=C/c2ccc(N(CCC#N)CCC#N)cc2C)c1", "TGI": "> 100"}, {"smiles": "O=C(Nc1ccc([N+](=O)[O-])cc1)C1C(=O)C(=O)N(c2ccc([N+](=O)[O-])cc2)C1=O", "note": "(stereo not given)", "TGI": "> 100"}, {"smiles": "CCOC(=O)C1N(S(=O)(=O)c2ccc(C)cc2)CCC12C(c1ccc(OC)cc1)NC1CCCCC12", "note": "(stereo not given)", "TGI": "> 100"}, {"smiles": "O=C(/C=C/c1ccccc1)/C=C/c1ccccc1", "TGI": 32.5}]}, {"system": "U251 CNS", "experiment": "growth of human tumour cells (NCI), 48 h", "units": {"TGI": "µM"}, "values": [{"smiles": "Cc1cccc(NC(=O)/C=C/c2ccc(N(CCC#N)CCC#N)cc2C)c1", "TGI": "> 100"}, {"smiles": "O=C(Nc1ccc([N+](=O)[O-])cc1)C1C(=O)C(=O)N(c2ccc([N+](=O)[O-])cc2)C1=O", "note": "(stereo not given)", "TGI": "> 100"}, {"smiles": "CCOC(=O)C1N(S(=O)(=O)c2ccc(C)cc2)CCC12C(c1ccc(OC)cc1)NC1CCCCC12", "note": "(stereo not given)", "TGI": "> 100"}, {"smiles": "O=C(/C=C/c1ccccc1)/C=C/c1ccccc1", "TGI": 43.5}]}, {"system": "COLO 205 colon", "experiment": "growth of human tumour cells (NCI), 48 h", "units": {"TGI": "µM"}, "values": [{"smiles": "Cc1cccc(NC(=O)/C=C/c2ccc(N(CCC#N)CCC#N)cc2C)c1", "TGI": "> 100"}, {"smiles": "O=C(Nc1ccc([N+](=O)[O-])cc1)C1C(=O)C(=O)N(c2ccc([N+](=O)[O-])cc2)C1=O", "note": "(stereo not given)", "TGI": "> 100"}, {"smiles": "CCOC(=O)C1N(S(=O)(=O)c2ccc(C)cc2)CCC12C(c1ccc(OC)cc1)NC1CCCCC12", "note": "(stereo not given)", "TGI": "> 100"}, {"smiles": "O=C(/C=C/c1ccccc1)/C=C/c1ccccc1", "TGI": "> 100"}]}, {"system": "SF-295 CNS", "experiment": "growth of human tumour cells (NCI), 48 h", "units": {"TGI": "µM"}, "values": [{"smiles": "Cc1cccc(NC(=O)/C=C/c2ccc(N(CCC#N)CCC#N)cc2C)c1", "TGI": "> 100"}, {"smiles": "O=C(Nc1ccc([N+](=O)[O-])cc1)C1C(=O)C(=O)N(c2ccc([N+](=O)[O-])cc2)C1=O", "note": "(stereo not given)", "TGI": "> 100"}, {"smiles": "CCOC(=O)C1N(S(=O)(=O)c2ccc(C)cc2)CCC12C(c1ccc(OC)cc1)NC1CCCCC12", "note": "(stereo not given)", "TGI": "> 100"}, {"smiles": "O=C(/C=C/c1ccccc1)/C=C/c1ccccc1", "TGI": "> 100"}]}]}
